Measurements: US8592403B2, “Diazepine and diazocane compounds as MC4 agonists” (Pfizer Limited, priority 2008, dated 2013)
pEC50, pKi: −log10 of the molar value.

Legend:
MC4 receptor = MC4 receptor (Homo sapiens, UniProt P32245); test: MC4 EC50 functional potency (protocol E of US2005/0176772 / WO 2005/077935); type: cell-based
Protocol: The compounds of formula (I) of the present invention have utility as MCR4 agonists in the treatment of various disease states.
MC5 and MC4 EC50 activity was determined as described by assay protocols D and E, respectively, in US2005/0176772 (pages 28-30).

[1] = In vitro metabolism rate determination, human liver microsome (HLM) assay; type: in vitro ADME; conditions: human, liver microsomes, read-out: HLM: Clint, app
Excerpt: In Vitro Metabolism Rate Determination (Human Liver Microsome (HLM); Rat Liver Microsome (RLM) Assay)
Many drugs are metabolised by the cytochrome P450 mono-oxygenase system. This enzyme is found in high concentrations in the liver and is bound to the endoplasmic reticulum of the hepatocyte. The enzyme system can be obtained in semi-purified state by the preparation of the hepatic microsomal fractions. Determining a compound's in vitro half-life in such a system provides a useful indicator of metabolic stability.
Methodology for In Vitro Rate Determination Using Hepatic & Supermix Microsomes
The method outlined below is for a total incubation volume of 1.5 ml.
1. The following mixture is prepared in a test tube:
2. Defrost microsomes at room temperature and add sufficient microsomes to give a final concentration of 0.5 nmol cytochrome P450/ml of incubation e.g. for a 1.5 ml incubation, the volume of microsomes to be added is:
3. Add sufficient MilliQ water to give a total incubation volume of 1.425 ml.
6. Add substrate to the incubation. The substrate should be at an initial concentration of 1 μM. The volume of substrate required in the remaining 1.162.5 ml incubation is calculated as follows: […]
8. Pre-incubate the tube containing the incubation mix, also positive control and no cofactor tubes in the thermostatically controlled shaking water bath set at 37° C. for approx 5 min.
9. Add NADP to initiate reaction (75 μl to each 1.162.5 ml incubation mix, 12.5 μl to positive control tube and 5 μl to no substrate tube) and take first time point immediately. The PNA positive control, no cofactor control and no substrate tubes are incubated for the total incubation time.
10. Remove 100 μl aliquots up to 9 different sampling points from 0 to 60 min (usually 0, 3, 5, 10, 15, 20, 30, 45 & 60 min) and terminate reaction. Longer incubation times can be used, but, after 120 min the microsomes deteriorate. The reaction may be terminated by addition of organic solvent, acid or base. At the end of the incubation process the no cofactor and no substrate controls in a similar manner i.e. terminate with the same reagent.
11. Analyse samples (including no cofactor and no substrate control) by a specific assay for the substrate to determine the disappearance kinetics.
Data obtained using the procedure described above can be quantified in terms of the substrates in vitro intrinsic clearance (Clint). Providing that the substrate concentration is below Km, the metabolism should be 1st order giving a log-linear plot of substrate disappearance with time.
The gradient of this line is the first order rate constant (k) for the substrate disappearance and is determined by regression analysis. This rate constant can be converted to the half-life according to the following equation.
Alternatively the rate constant can be converted to an intrinsic clearance (Clint) according to the following equation:— Clint(μl/min/mg)=(k/protein concentration in incubation (mg/ml))*1000

MC3 receptor (MC3R) = biological target: T1, MC3 receptor (MC3R) (Homo sapiens, UniProt P41968); test: Nle4, D-Phe7-α-MSH inhibition at the MC3 receptor (competition binding, SPA, CHO-CRE MC3R membranes)
T1 construct: expressed in transfected cells; host or cells: CHO-CRE MC3R cells (membranes)
Excerpt: Nle4, D-Phe7-α-MSH Inhibition at the MC3 Receptor
Nle4, D-Phe7-α-MSH is a stable analogue of melanocyte-stimulating hormone (MSH), which is an agonist at the MC3 receptor (MC3R). Compounds can be evaluated for their ability to inhibit Nle4, D-Phe7-α-MSH binding to membranes from cells expressing the MC3R using a competition binding assay versus [^125I] Nle4, D-Phe7-α-MSH.
Cells expressing the MC3R were subject to homogenisation and the membrane fragment isolated by differential centrifugation. CHO-CRE MC3R cell membranes were coupled to PVT-PEI-WGA SPA Beads type A for 2 hours, spun at 1000 RPM for 5 mins and suspended to a final assay concentration of 800 ug bead/ml (1.2 ug membrane, 40 ug bead per well). Bead/membrane mix was incubated with 0.06 nM [^125I] Nle4, D-Phe7-α-MSH and 11 half-log concentrations of competitor ligand, in duplicate, in a total volume of 50 μl buffer per well (25 mM HEPES, 1 mM MgCl2, 2.5 mM CaCl2, 1% Pluronic F68, 1 complete EDTA protease inhibitor tablet/50 ml pH7). Non-specific binding was determined by the inclusion of 100 nM SHU9119. The reaction was initiated by the addition of bead/membranes and plates were incubated at room temperature for 12 hours (the first hour on a plate shaker), after which the amount of radioactivity present was determined using a Wallac plate counter. Ki values were determined by data analysis using appropriate software.

CYP3A4 = biological target: T2, CYP3A4 (Homo sapiens, UniProt P08684); test: High density DDI 3 μM cocktail screen in human liver microsomes, midazolam probe; type: in vitro ADME; conditions: human, liver microsomes, probe midazolam, read-out: % inhibition 3A4 @ 3 μM
T2 construct: utilizes human liver microsomes together with isoform-specific clinical drug probes; from tissue; host or cells: human liver microsomes
Protocol: High Density Drug-Drug Interactions (DDI) 3 μM Cocktail Screen
A drug interaction is a situation in which a substance affects the activity of another drug, i.e. the effects are increased or decreased, or together they produce a new effect that neither produces on its own. Drug interactions may be the result of various processes but a relatively common one is where one drug affects the pharmacokinetics of another by inhibiting the cytochrome P450 that metabolises it. Because of the importance of these phenomena, assessment of the DDI potential for new chemical entities (NCEs) is considered important early on in the drug discovery process.
The DDI cocktail screen in human liver microsomes (HLM) is run in a fully automated fashion and the aim of the screen is to provide a single-point assessment of the DDI potential of new chemical entity (NCE; tested at […]) against the 4 primary cytochrome P450 enzymes, 1A2, 2D6, 2C9 and 3A4.
The substrate cocktail approach for P450 DDI utilizes human liver microsomes together with isoform-specific clinical drug probes and permits the simultaneous measurement of the inhibition of P450 1A2, 2C9, 2D6 & 3A4 activities in a single incubation. This is run in high throughput with simultaneous detection of metabolites by LC-MS/MS. This method has been thoroughly tested and evaluated using standard compounds.
Appearance of the metabolite of each substrate is measured over time in the presence and absence of the NCE (test compound/inhibitor) at a concentration of 3 μM. The compounds are assessed for their inhibitory potential as a percentage value and interpreted using the following scheme.

T1 sequence (P41968 whole entry): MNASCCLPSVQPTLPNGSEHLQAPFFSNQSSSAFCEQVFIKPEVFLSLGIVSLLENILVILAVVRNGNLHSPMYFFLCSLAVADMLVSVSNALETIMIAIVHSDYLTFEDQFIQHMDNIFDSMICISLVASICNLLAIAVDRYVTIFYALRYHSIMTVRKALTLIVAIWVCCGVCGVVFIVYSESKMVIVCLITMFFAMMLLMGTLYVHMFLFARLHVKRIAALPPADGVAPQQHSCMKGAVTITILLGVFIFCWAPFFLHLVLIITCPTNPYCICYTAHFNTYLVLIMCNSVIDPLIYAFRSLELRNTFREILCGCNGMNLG
T2 sequence (P08684 whole entry, canonical isoform): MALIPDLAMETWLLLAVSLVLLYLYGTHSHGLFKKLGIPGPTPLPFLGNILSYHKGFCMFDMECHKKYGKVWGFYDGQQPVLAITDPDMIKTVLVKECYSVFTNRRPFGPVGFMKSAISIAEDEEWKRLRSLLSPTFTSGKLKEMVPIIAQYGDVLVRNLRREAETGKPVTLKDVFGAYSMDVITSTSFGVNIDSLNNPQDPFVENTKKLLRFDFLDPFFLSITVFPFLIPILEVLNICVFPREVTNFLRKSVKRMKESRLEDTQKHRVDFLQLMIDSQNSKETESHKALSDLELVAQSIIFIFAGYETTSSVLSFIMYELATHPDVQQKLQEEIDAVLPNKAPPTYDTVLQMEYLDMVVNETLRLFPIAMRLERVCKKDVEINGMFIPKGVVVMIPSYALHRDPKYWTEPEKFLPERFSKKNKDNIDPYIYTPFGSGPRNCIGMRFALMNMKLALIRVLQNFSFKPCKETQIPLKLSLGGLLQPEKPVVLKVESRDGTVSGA
MC4 receptor, sequence (P32245 whole entry): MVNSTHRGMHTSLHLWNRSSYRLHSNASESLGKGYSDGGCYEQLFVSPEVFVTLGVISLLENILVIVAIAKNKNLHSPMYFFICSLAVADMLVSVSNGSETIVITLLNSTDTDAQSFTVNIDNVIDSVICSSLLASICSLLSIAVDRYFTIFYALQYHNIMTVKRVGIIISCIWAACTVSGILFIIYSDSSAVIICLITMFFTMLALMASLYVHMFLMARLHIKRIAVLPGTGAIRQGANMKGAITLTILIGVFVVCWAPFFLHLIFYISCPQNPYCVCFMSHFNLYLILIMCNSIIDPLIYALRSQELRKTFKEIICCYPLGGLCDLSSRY

| pEC50 (MC4 receptor) | microsomal CLint at 1 μM [1] [µL/min/mg] | pKi (MC3 receptor (MC3R)) | inhibition at 3 µM (CYP3A4) [%] | SMILES |
| --- | --- | --- | --- | --- |
| 8.09 | 41.7 | 5.39 | 41.9 | COC(=O)N1CCN(C(=O)[C@@H]2CN(c3cccnn3)C[C@H]2c2ccc(OC)cc2F)CCC1c1ccc(Cl)cc1 (mixture of isomers) [Example 95] |
| 8.68 | 13.9 |  | 42.3 | CC(C)C(=O)N1CCN(C(=O)[C@@H]2CN(c3ccc(=O)n(C)n3)C[C@H]2c2ccc(Cl)cn2)CCC[C@H]1c1ccc(Cl)cc1 [Example 37, 6-[(3S,4S)-3-{[5S-(4-chlorophenyl)-4-isobutyryl-1,4-diazocan-1-yl]carbonyl}-4-(5-chloropyridin-2-yl)pyrrolidin-1-yl]-2-methylpyridazin-3(2H)-one] |
| 8.25 | 173 |  | 54.5 | CCN(CC)C(=O)N1CCN(C(=O)[C@@H]2CN(C(C)(C)C)C[C@H]2c2ccc(F)cc2F)CCC[C@H]1c1ccc(Cl)cc1 [Example 44, 4-{[(3S,4R)-1-tert-butyl-4-(2,4-difluorophenyl)pyrrolidin-3-yl]carbonyl}-8S-(4-chlorophenyl)-N,N-diethyl-1,4-diazocane-1-carboxamide] |
| 8.48 |  | 6.67 | 75.2 | COC(=O)N1CCN(C(=O)[C@@H]2CN(c3ccc4nncn4n3)C[C@H]2c2ccc(Cl)cn2)CCC[C@@H]1c1ccc(Cl)cc1 [Example 51] |
| 7.83 | 27.7 |  | 58.5 | CC(C)OC(=O)N1CCN(C(=O)[C@@H]2CN(C(C)(C)C)C[C@H]2c2ccc(F)cc2F)CCC[C@H]1c1ccc(Cl)cc1 [Example 53] |
| 7.60 | 55.4 |  | 38.4 | CC(C)(C)N1C[C@@H](C(=O)N2CCC[C@@H](c3ccc(Cl)cc3)N(C(=O)C3CCOCC3)CC2)[C@H](c2ccc(F)cc2F)C1 [Example 59, 1-{[(3S,4R)-1-tert-butyl-4-(2,4-difluorophenyl)pyrrolidin-3-yl]carbonyl}-5S-(4-chlorophenyl)-4-(tetrahydro-2H-pyran-4-ylcarbonyl)-1,4-diazocane] |

Further lines, the compound ahead of its results:

| SMILES | pEC50 (MC4 receptor) | microsomal CLint at 1 μM [1] [µL/min/mg] | pKi (MC3 receptor (MC3R)) | inhibition at 3 µM (CYP3A4) [%] |
| --- | --- | --- | --- | --- |
| COc1ccc([C@@H]2CN(c3cccnn3)C[C@H]2C(=O)N2CCC(c3ccc(Cl)cc3)N(C(C)=O)CC2)c(F)c1 (mixture of isomers) [Example 93] | 7.84 | 29.3 | 5.31 | 18.9 |
| COc1ccc([C@@H]2CN(c3cccnn3)C[C@H]2C(=O)N2CCC(c3ccc(Cl)cc3)N(S(C)(=O)=O)CC2)c(F)c1 (mixture of isomers) [Example 94] | 7.59 | 78.1 | 5.17 | 46.6 |
| CC(C)(C)N1C[C@@H](C(=O)N2CCC[C@@H](c3ccc(Cl)cc3)N(C(=O)C3CC3)CC2)[C@H](c2ccc(F)cc2F)C1 [Example 7] | 7.92 | 26.2 | 5.00 |  |
| CC(C)(C)N1C[C@@H](C(=O)N2CCC[C@@H](c3ccc(Cl)cc3)N(C(=O)N3CCOCC3)CC2)[C@H](c2ccc(F)cc2F)C1 [Example 46] | 7.71 | 71.1 |  | 27.3 |
| COC(=O)N1CCN(C(=O)[C@@H]2CN(c3ccc(=O)n(C)n3)C[C@H]2c2ccc(Cl)cn2)CCC[C@H]1c1ccc(Cl)cc1 [Example 47, methyl 8S-(4-chlorophenyl)-4-{[(3S,4S)-4-(5-chloropyridin-2-yl)-1-(1-methyl-6-oxo-1,6-dihydropyridazin-3-yl)pyrrolidin-3-yl]carbonyl}-1,4-diazocane-1-carboxylate] | 8.29 | 20.6 |  | 54.2 |
| COC(=O)N1CCN(C(=O)[C@@H]2CN(c3ccc(C#N)nn3)C[C@H]2c2ccc(F)cc2F)CCC[C@H]1c1ccc(Cl)cc1 [Example 55] | 8.29 | 9.75 | 6.81 | 70.6 |
| CC(C)(C)N1C[C@@H](C(=O)N2CCC[C@@H](c3ccc(Cl)cc3)N(C(=O)C3CC(F)(F)C3)CC2)[C@H](c2ccc(F)cc2F)C1 [Example 61] | 7.60 | 13.9 |  | 40 |
| CC(C)(C)N1C[C@@H](C(=O)N2CCC[C@@H](c3ccc(Cl)cc3)N(C(=O)C3CC(F)(F)C3)CC2)[C@H](c2ccc(Cl)cn2)C1 [Example 63] | 7.07 | 9.43 |  | 55.6 |
| CC(C)(C)N1C[C@@H](C(=O)N2CCC[C@@H](c3ccc(Cl)cc3)N(C(=O)CC3CC3)CC2)[C@H](c2ccc(F)cc2F)C1 [Example 65] | 7.78 | 23.1 | 5.16 |  |
| COC(=O)N1CCN(C(=O)[C@@H]2CN(c3ccc4nncn4n3)C[C@H]2c2ccc(F)cc2F)CCC[C@H]1c1ccc(Cl)cc1 [Example 96] | 9.07 | 31.3 |  | 76.9 |
